Assay results published in US20250171438A1 (Agios Pharmaceuticals, Inc., priority 2022, published 2025).

Each compound was assayed against T1, human PAH with the R408W mutation (Homo sapiens, UniProt P00439, R408W) (assay: Cell Based Phenylalanine Flux Assay). Conditions: A375 cells expressing human R408W PAH; 24 hrs compound incubation; 13C-Tyrosine by LC-MS; average where tested multiple times; read-out: AC50.
T1 construct: expressed in transfected cells
T1 sequence (P00439 1-452 R408W): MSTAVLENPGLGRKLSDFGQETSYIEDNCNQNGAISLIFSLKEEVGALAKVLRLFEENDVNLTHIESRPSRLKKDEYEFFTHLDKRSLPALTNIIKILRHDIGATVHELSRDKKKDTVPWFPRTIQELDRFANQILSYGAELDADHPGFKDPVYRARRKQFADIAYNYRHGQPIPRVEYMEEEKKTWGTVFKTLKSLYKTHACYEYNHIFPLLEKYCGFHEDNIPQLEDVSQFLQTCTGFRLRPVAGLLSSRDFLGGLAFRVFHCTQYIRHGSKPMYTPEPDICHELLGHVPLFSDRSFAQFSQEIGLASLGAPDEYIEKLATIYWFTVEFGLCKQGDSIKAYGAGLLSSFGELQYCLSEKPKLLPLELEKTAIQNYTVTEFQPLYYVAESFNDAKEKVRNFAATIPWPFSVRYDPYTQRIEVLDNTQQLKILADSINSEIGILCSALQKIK

AC50 | Structure (SMILES)
< 500 nM | Cn1cc(-c2ncc(C(=O)N3CCc4[nH]cnc4[C@H]3c3nc4ccccc4s3)s2)c(C2CC2)n1 [Example 1385]
1000 to 5000 nM | Cn1cc(-c2ncc(C(=O)N3CCc4[nH]cnc4[C@@H]3c3nc4ccccc4s3)s2)c(C2CC2)n1 [Example 1386, (R)-(4-(benzo[d]thiazol-2-yl)-6,7-dihydro-1H-imidazo[4,5-c]pyridin-5(4H)-yl)(2-(3-cyclopropyl-1-methyl-1H-pyrazol-4-yl)thiazol-5-yl)methanone]
< 500 nM | O=C(c1scnc1C1CC1)N1CCc2[nH]cnc2[C@H]1c1nc2ccccc2s1 [Example 1387]
1000 to 5000 nM | O=C(c1scnc1C1CC1)N1CCc2[nH]cnc2[C@@H]1c1nc2ccccc2s1 [Example 1388, (R)-(4-(benzo[d]thiazol-2-yl)-6,7-dihydro-1H-imidazo[4,5-c]pyridin-5(4H)-yl)(4-cyclopropylthiazol-5-yl)methanone]
< 500 nM | Cn1cc(-c2ncc(C(=O)N3CCc4[nH]cnc4[C@H]3c3nc4ccccc4s3)s2)c(C(F)(F)F)n1 [Example 1389]
< 500 nM | O=C(c1cnc(-c2cnn(CC(F)(F)F)c2)o1)N1CCc2[nH]cnc2[C@H]1c1nc2ccccc2s1 [Example 1391]
1000 to 5000 nM | O=C(c1cnc(-c2cnn(CC(F)(F)F)c2)o1)N1CCc2[nH]cnc2[C@@H]1c1nc2ccccc2s1 [Example 1392, (R)-(4-(benzo[d]thiazol-2-yl)-6,7-dihydro-1H-imidazo[4,5-c]pyridin-5(4H)-yl)(2-(1-(2,2,2-trifluoroethyl)-1H-pyrazol-4-yl)oxazol-5-yl)methanone]
< 500 nM | Cc1nc(C(F)(F)F)oc1C(=O)N1CCc2[nH]cnc2[C@H]1c1nc2ccccc2s1 [Example 1393]
1000 to 5000 nM | Cc1nc(C(F)(F)F)oc1C(=O)N1CCc2[nH]cnc2[C@@H]1c1nc2ccccc2s1 [Example 1394, (R)-(4-(benzo[d]thiazol-2-yl)-6,7-dihydro-1H-imidazo[4,5-c]pyridin-5(4H)-yl)(4-methyl-2-(trifluoromethyl)oxazol-5-yl)methanone]
< 500 nM | Cc1nc(C2CC2)oc1C(=O)N1CCc2[nH]cnc2[C@H]1c1nc2ccccc2s1 [Example 1395]
> 5000 nM | Cc1nc(C2CC2)oc1C(=O)N1CCc2[nH]cnc2[C@@H]1c1nc2ccccc2s1 [Example 1396, (R)-(4-(benzo[d]thiazol-2-yl)-6,7-dihydro-1H-imidazo[4,5-c]pyridin-5(4H)-yl)(2-cyclopropyl-4-methyloxazol-5-yl)methanone]
< 500 nM | Cc1nc(C(C)C)oc1C(=O)N1CCc2[nH]cnc2[C@H]1c1nc2ccccc2s1 [Example 1397]
1000 to 5000 nM | Cc1nc(C(C)C)oc1C(=O)N1CCc2[nH]cnc2[C@@H]1c1nc2ccccc2s1 [Example 1398, (R)-(4-(benzo[d]thiazol-2-yl)-6,7-dihydro-1H-imidazo[4,5-c]pyridin-5(4H)-yl)(2-isopropyl-4-methyloxazol-5-yl)methanone]
< 500 nM | Cc1nc(CC2CC2)oc1C(=O)N1CCc2[nH]cnc2[C@H]1c1nc2ccccc2s1 [Example 1399]
1000 to 5000 nM | Cc1nc(CC2CC2)oc1C(=O)N1CCc2[nH]cnc2[C@@H]1c1nc2ccccc2s1 [Example 1400, (R)-(4-(benzo[d]thiazol-2-yl)-6,7-dihydro-1H-imidazo[4,5-c]pyridin-5(4H)-yl)(2-(cyclopropylmethyl)-4-methyloxazol-5-yl)methanone]
< 500 nM | O=C(c1cnc(C(F)(F)F)o1)N1CCc2[nH]cnc2[C@H]1c1nc2c(F)cccc2s1 [Example 1401, (S)-(4-(4-fluorobenzo[d]thiazol-2-yl)-6,7-dihydro-1H-imidazo[4,5-c]pyridin-5(4H)-yl)(2-(trifluoromethyl)oxazol-5-yl)methanone]
1000 to 5000 nM | O=C(c1cnc(C(F)(F)F)o1)N1CCc2[nH]cnc2[C@@H]1c1nc2c(F)cccc2s1 [Example 1402, (R)-(4-(4-fluorobenzo[d]thiazol-2-yl)-6,7-dihydro-1H-imidazo[4,5-c]pyridin-5(4H)-yl)(2-(trifluoromethyl)oxazol-5-yl)methanone]
500 to 1000 nM | O=C(c1cnc(-c2ccnc(C(F)(F)F)c2)s1)N1CCc2[nH]cnc2[C@H]1c1nc2ccccc2s1 [Example 1403]
1000 to 5000 nM | O=C(c1cnc(-c2ccnc(C(F)(F)F)c2)s1)N1CCc2[nH]cnc2[C@@H]1c1nc2ccccc2s1 [Example 1404, (R)-(4-(benzo[d]thiazol-2-yl)-6,7-dihydro-1H-imidazo[4,5-c]pyridin-5(4H)-yl)(2-(2-(trifluoromethyl)pyridin-4-yl)thiazol-5-yl)methanone]
< 500 nM | Cc1nn(C)c(C)c1-c1ncc(C(=O)N2CCc3[nH]cnc3[C@H]2c2nc3ccccc3s2)s1 [Example 1405]

AC50 | Structure (SMILES)
500 to 1000 nM | Cc1nn(C)c(C)c1-c1ncc(C(=O)N2CCc3[nH]cnc3[C@@H]2c2nc3ccccc3s2)s1 [Example 1406, (R)-(4-(benzo[d]thiazol-2-yl)-6,7-dihydro-1H-imidazo[4,5-c]pyridin-5(4H)-yl)(2-(1,3,5-trimethyl-1H-pyrazol-4-yl)thiazol-5-yl)methanone]
< 500 nM | Cn1ncc(-c2ncc(C(=O)N3CCc4[nH]cnc4[C@H]3c3nc4ccccc4s3)s2)c1C(F)(F)F [Example 1407]
1000 to 5000 nM | Cn1ncc(-c2ncc(C(=O)N3CCc4[nH]cnc4[C@@H]3c3nc4ccccc4s3)s2)c1C(F)(F)F [Example 1408, (R)-(4-(benzo[d]thiazol-2-yl)-6,7-dihydro-1H-imidazo[4,5-c]pyridin-5(4H)-yl)(2-(1-methyl-5-(trifluoromethyl)-1H-pyrazol-4-yl)thiazol-5-yl)methanone]
500 to 1000 nM | O=C(c1cnn(C(F)F)c1)N1CCc2[nH]cnc2[C@H]1c1nc2ccccc2s1 [Example 1409]
> 5000 nM | O=C(c1cnn(C(F)F)c1)N1CCc2[nH]cnc2[C@@H]1c1nc2ccccc2s1 [Example 1410, (R)-(4-(benzo[d]thiazol-2-yl)-6,7-dihydro-1H-imidazo[4,5-c]pyridin-5(4H)-yl)(1-(difluoromethyl)-1H-pyrazol-4-yl)methanone]
< 500 nM | O=C(c1cnn(-c2ccc(F)cc2)c1)N1CCc2[nH]cnc2[C@H]1c1nc2ccccc2s1 [Example 1411]
1000 to 5000 nM | O=C(c1cnn(-c2ccc(F)cc2)c1)N1CCc2[nH]cnc2[C@@H]1c1nc2ccccc2s1 [Example 1412, (R)-(4-(benzo[d]thiazol-2-yl)-6,7-dihydro-1H-imidazo[4,5-c]pyridin-5(4H)-yl)(1-(4-fluorophenyl)-1H-pyrazol-4-yl)methanone]
< 500 nM | Cc1nc(-c2cnn(CC(F)(F)F)c2)oc1C(=O)N1CCc2[nH]cnc2[C@H]1c1nc2ccccc2s1 [Example 1413]
1000 to 5000 nM | Cc1nc(-c2cnn(CC(F)(F)F)c2)oc1C(=O)N1CCc2[nH]cnc2[C@@H]1c1nc2ccccc2s1 [Example 1414, (R)-(4-(benzo[d]thiazol-2-yl)-6,7-dihydro-1H-imidazo[4,5-c]pyridin-5(4H)-yl)(4-methyl-2-(1-(2,2,2-trifluoroethyl)-1H-pyrazol-4-yl)oxazol-5-yl)methanone]
< 500 nM | CC(C)n1cc(-c2ncc(C(=O)N3CCc4[nH]cnc4[C@H]3c3nc4ccccc4s3)o2)cn1 [Example 1415]
1000 to 5000 nM | CC(C)n1cc(-c2ncc(C(=O)N3CCc4[nH]cnc4[C@@H]3c3nc4ccccc4s3)o2)cn1 [Example 1416, (R)-(4-(benzo[d]thiazol-2-yl)-6,7-dihydro-1H-imidazo[4,5-c]pyridin-5(4H)-yl)(2-(1-isopropyl-1H-pyrazol-4-yl)oxazol-5-yl)methanone]
< 500 nM | O=C(c1nnc(-c2ccccc2)o1)N1CCc2[nH]cnc2[C@H]1c1nc2ccccc2s1 [Example 1417]
1000 to 5000 nM | O=C(c1nnc(-c2ccccc2)o1)N1CCc2[nH]cnc2[C@@H]1c1nc2ccccc2s1 [Example 1418, (R)-(4-(benzo[d]thiazol-2-yl)-6,7-dihydro-1H-imidazo[4,5-c]pyridin-5(4H)-yl)(5-phenyl-1,3,4-oxadiazol-2-yl)methanone]
< 500 nM | O=C(c1nnc(-c2ccccc2)s1)N1CCc2[nH]cnc2[C@H]1c1nc2ccccc2s1 [Example 1419]
> 5000 nM | O=C(c1nnc(-c2ccccc2)s1)N1CCc2[nH]cnc2[C@@H]1c1nc2ccccc2s1 [Example 1420, (R)-(4-(benzo[d]thiazol-2-yl)-6,7-dihydro-1H-imidazo[4,5-c]pyridin-5(4H)-yl)(5-phenyl-1,3,4-thiadiazol-2-yl)methanone]
< 500 nM | CC(C)(C)c1ncc(C(=O)N2CCc3[nH]cnc3[C@H]2c2nc3ccccc3s2)s1 [Example 1421]
1000 to 5000 nM | CC(C)(C)c1ncc(C(=O)N2CCc3[nH]cnc3[C@@H]2c2nc3ccccc3s2)s1 [Example 1422, (R)-(4-(benzo[d]thiazol-2-yl)-6,7-dihydro-1H-imidazo[4,5-c]pyridin-5(4H)-yl)(2-(tert-butyl)thiazol-5-yl)methanone]
< 500 nM | Cc1nc(-c2cnn(C(C)C)c2)oc1C(=O)N1CCc2[nH]cnc2[C@H]1c1nc2ccccc2s1 [Example 1423]
1000 to 5000 nM | Cc1nc(-c2cnn(C(C)C)c2)oc1C(=O)N1CCc2[nH]cnc2[C@@H]1c1nc2ccccc2s1 [Example 1424, (R)-(4-(benzo[d]thiazol-2-yl)-6,7-dihydro-1H-imidazo[4,5-c]pyridin-5(4H)-yl)(2-(1-isopropyl-1H-pyrazol-4-yl)-4-methyloxazol-5-yl)methanone]
< 500 nM | CC(C)(C)c1ncc(C(=O)N2CCc3[nH]cnc3[C@H]2c2nc3c(F)cccc3s2)s1 [Example 1425]
